Counter-ions that a name gives are not always drawn.
Target: D(3) dopamine receptor (Rattus norvegicus, UniProt P19020)
Sequence (P19020 whole entry): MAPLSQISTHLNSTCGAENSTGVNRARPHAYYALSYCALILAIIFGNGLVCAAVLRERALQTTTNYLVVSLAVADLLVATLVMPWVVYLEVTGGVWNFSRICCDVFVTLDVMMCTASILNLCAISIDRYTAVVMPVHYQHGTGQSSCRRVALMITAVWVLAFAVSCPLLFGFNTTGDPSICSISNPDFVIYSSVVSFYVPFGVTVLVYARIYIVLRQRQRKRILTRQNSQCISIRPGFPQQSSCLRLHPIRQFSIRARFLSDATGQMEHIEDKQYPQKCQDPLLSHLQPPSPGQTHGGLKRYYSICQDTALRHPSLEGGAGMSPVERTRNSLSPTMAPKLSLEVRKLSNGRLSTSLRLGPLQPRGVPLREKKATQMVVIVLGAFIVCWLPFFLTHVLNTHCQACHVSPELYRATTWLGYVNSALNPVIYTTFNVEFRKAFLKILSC

Row | Structure (SMILES) | Ki
1 | CN1CCN(C2=Nc3cc(F)ccc3Cc3ccccc32)CC1 | 255 nM
2 | CCCN[C@@H]1CCc2c(OC)cccc2[C@@H]1C | 438 nM
3 | CN1CCN(C2=Nc3ccccc3Cc3ccccc32)CC1 | 919 nM
4 | OCCN1CCN(CCCN2c3ccccc3Sc3ccc(C(F)(F)F)cc32)CC1 [2-[4-[3-[2-(trifluoromethyl)phenothiazin-10-yl]propyl]piperazin-1-yl]ethanol;hydrochloride] | 0.71 nM
5 | CCc1cc(Cl)c(OC)c(C(=O)NC[C@@H]2CCCN2CC)c1O [3-Chloro-5-ethyl-N-((S)-1-ethyl-pyrrolidin-2-ylmethyl)-6-hydroxy-2-methoxy-benzamide] | 0.23 nM
6 | CN1CCc2cccc3c2[C@H]1Cc1ccc(O)c(O)c1-3 [APOKYN] | 43.9 nM
7 | COc1cc(N)c(Cl)cc1C(=O)N[C@@H]1C[C@H]2CCC[C@@H](C1)N2Cc1ccc(F)cc1 [BRL-34778] | 0.28 nM
8 | Cc1nc2n(c(=O)c1CCN1CCC(C(=O)c3ccc(F)cc3)CC1)CCS2 [CAS_86487-64-1] | 106 nM
9 | CCCN(CCC)C1C=Cc2c(OC)cccc2C1C (stereo not given) [CAS_5311190] | 36.5 nM
10 | O=C(O)c1ccccc1C(=O)Nc1cccc2ccccc12 [NPA,(+)] | 0.81 nM

Source: BindingDB's records for PubMed 8437101 (University of Pennsylvania, 1993)
